In PubChem BioAssay (NCI):
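Dose response: 5 concentrations. Exposure: 48 h. Format: 96-well plates. Endpoint: linear interpolation; highest concentration if not reached. The concentration for 50% growth inhibition is given as GI50. TGI marks complete inhibition of growth.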

Assays:
Test in all cases: DTP human tumour cell line panel, 48 h
A498 renal = tested on: A498 renal
HL-60(TB) leukemia = tested on: HL-60(TB) leukemia
M14 melanoma = tested on: M14 melanoma
NCI-H226 lung = tested on: NCI-H226 lung
OVCAR-3 ovarian = tested on: OVCAR-3 ovarian
OVCAR-4 ovarian = tested on: OVCAR-4 ovarian
SF-295 CNS = tested on: SF-295 CNS
K-562 leukemia = tested on: K-562 leukemia
NCI-H522 lung = tested on: NCI-H522 lung
TK-10 renal = tested on: TK-10 renal

Structure (SMILES)	TGI (A498 renal) [µM]	TGI (HL-60(TB) leukemia) [µM]	TGI (M14 melanoma) [µM]	TGI (NCI-H226 lung) [µM]	TGI (OVCAR-3 ovarian) [µM]	TGI (OVCAR-4 ovarian) [µM]	TGI (SF-295 CNS) [µM]	TGI (K-562 leukemia) [µM]	TGI (NCI-H522 lung) [µM]	TGI (TK-10 renal) [µM]	GI50 (NCI-H226 lung) [µM]	GI50 (SF-295 CNS) [µM]	GI50 (TK-10 renal) [µM]	GI50 (A498 renal) [µM]	GI50 (HL-60(TB) leukemia) [µM]	GI50 (K-562 leukemia) [µM]	GI50 (M14 melanoma) [µM]	GI50 (NCI-H522 lung) [µM]	GI50 (OVCAR-3 ovarian) [µM]	GI50 (OVCAR-4 ovarian) [µM]
O=C(Nc1ccc(Cl)cc1Cl)C(=O)C(C(=O)c1ccc2ccccc2c1)C1OC(=O)c2ccccc21 (stereo not drawn)	20.2	23.9	28	6.33	26.1	35.2	19.7													
COC1=CC(=O)C2C(C1=O)[C@@H]1c3ccccc3C[C@H]21 (stereo partly drawn)	> 100	> 100	> 100		> 100	> 100	> 100	> 100	> 100	> 100										
O=C(O)COc1ccc(O)c2c1C(=O)CCCC2=O	> 100	> 100	> 100		> 100	> 100	> 100	> 100	> 100	> 100										
OCCCOC(c1ccccc1)(c1ccccc1)c1ccccc1		> 100	> 100		> 100	> 100	> 100	> 100	> 100	> 100										
O=CC(O)C(O)C(O)C(O)C(=O)NCCCCCCCCCCCCNC(=O)C(O)C(O)C(O)C(O)C=O (stereo not drawn)	> 100	> 100	> 100	> 100	> 100	> 100	> 100		> 100	> 100										
CC(=O)/C(=C/n1c(=S)[nH]c2ccccc21)C(=O)Nc1ccccc1C	> 100	> 100	> 100	> 100	> 100	> 100	> 100			> 100										
CCCCc1c2c(nc3c1CCc1cc4cc5c(nc4nc1-3)-c1nc3c(c(CCCC)c1CC5)CCCC3)CCCC2		> 100	> 100	89.1			> 100	> 100	> 100	> 100										
COc1cc(/C=C\c2ccc(C)cc2)cc(OC)c1OC		0.0159		0.987	0.00442	46.5		11.7	0.013	> 100	< 0.0134	0.00818	25.7							
CC(=O)N[C@@H]1C(O)CN2C(=O)C(=O)O[C@H](C(O)CO)[C@@H]12 (stereo partly drawn)	> 100	> 100			> 100		> 100	> 100	> 100	> 100										
CCOC(=O)C1=C(C(=O)c2ccc(C)cc2)C(c2cccc([N+](=O)[O-])c2)C(C(=O)c2ccc(C)cc2)=C(C(=O)OCC)N1		96.7	32.9	35.2	28.8	84.6	32.1	57.9	36.2	43.2										
Cn1nc(-c2ccccc2)c(C(=O)/C=C/c2ccc(F)cc2)c(N2CCCCC2)c1=O		3.28	28.6					13	28.7	69.9										
O=C(/C(=C\C(=O)c1cccs1)c1ccsc1)c1ccc(Br)cc1	> 100	> 100	> 100	> 100			> 100	> 100		> 100										
COc1cc(CCN)c2c(c1OC)SSSSS2	3.64	5.09	0.676		0.538	2.51	3.99	> 100	0.849	3.03		1.79	1.42	1.98	1.57	0.629	0.085	0.203	0.204	1.05
FC(F)(F)c1cc(-c2nnc3n2N=C(N2CCCC2)CS3)cc(C(F)(F)F)c1	> 50		> 50	> 50	28.8	> 50	> 50	> 50	> 50		24.6	19.2		> 50		> 50	> 50	24	5.27	> 50
CCCNCCCC(NC(C)=O)C(=O)NCc1ccccc1 (stereo not drawn)	> 100		> 100	> 100	> 100	> 100	> 100	> 100	> 100	> 100										
COc1ccccc1N=C(N)N/N=C/c1c[nH]c2ccccc12		33.3	10.5	28.5	25.7	31.3	21.3	11.6	19.8	30.9										
O=C(Nc1ccc(F)cc1)c1ccc(NC2=C(Cl)C(=O)N(Cc3ccccc3)C2=O)cc1	31.9	7.35	30.3	33.3	15.3	39.6	16.6	13.7	28.8		13.5	4.27		13.6	2.31	3.79	13.4	7.27	3.59	16.5
O=C(O)[C@@H]1[C@H](C(=O)O)[C@H](C(=O)O)C[C@@H]1C(=O)O	> 100		> 100	> 100	> 100	> 100	> 100	> 100	> 100	> 100										
NCCCOCC(=O)O				> 100	> 100	> 100	> 100	> 100		> 100										
Cc1c(S(C)(=O)=O)c(-c2cc(F)cc(N3CCN(c4ccc(NS(=O)(=O)c5ccc(N[C@H](CCN6CCC(C(=O)OCCCP(=O)(O)O)CC6)CSc6ccccc6)c(S(=O)(=O)C(F)(F)F)c5)cc4)CC3)c2)c(-c2ccc(Cl)cc2)n1C(C)C	> 100		> 100	> 100	> 100	> 100	> 100		> 100	> 100	> 100	> 100	25.8	> 100			> 100	> 100	> 100	> 100
Nc1nc2c(c(=O)[nH]1)NC(CO)CN2 (stereo not drawn)		> 100	> 100	> 100	> 100		> 100	> 100	> 100	> 100										
CCOC(=O)C1=C(c2ccccc2)N(C)c2ccccc2S1		> 100	> 100	54.1	> 100	> 100	> 100	> 100	52.3	> 100										
